Assays:
[1] = system: APP processing in HEK293-APP cells; assay: APP inhibitor activity on HEK293-APP cells (βCTF Western blot); type: cell-based, human; details: γ-secretase inhibitor and cholesterol added
Procedure: In the neuronal cells of the brain, APP is processed by α-secretase or β-secretase. To investigate the effects of the inhibitors on the cell, a cell based assay system was developed as described in FIG. 10. C-terminal fragment of APP remaining on the cell membrane was detected by Western blot. The resulting C-terminal fragments, αCTF or βCTF are further processed by γ-secretase. However, if the cells are treated with the γ-secretase inhibitor, this processing is blocked. As a result, αCTF or βCTF accumulate in the cell. If β-secretase inhibitor or APP inhibitor is added, this processing is blocked and βCTF disappears.
In addition, γ-secretase inhibitor and cholesterol were added to the cells to increase βCTF level. Commercially available peptide-based β-secretase inhibitor was included as control (Lane 6, FIG. 11). To detect the N-terminal fragment of β-amyloid which is a product of APP processing, 6E10 antibody was employed. […] Recently, it has been reported that the commercially available peptide-based inhibitor had to be linked to an oligoarginine transporter peptide to have inhibitory activity against cells. Therefore, mimetic approach is adopted to produce cell permeable analogs. (Chang et al. J. Neurochemistry 2004; 89:1409-1416).
After confirming the ability of the oligo-arginine coupled APP inhibitors to enter the cells, the inhibitors were applied to HEK293-APP cells overexpressing APP to test their inhibitory activities on APP processing. […] This inhibitor started to show significant inhibitory activity beginning from 0.1 μM (lower panel).

[2] = system: Substrate M (Sub M, SEVNLDAEFR; β-secretase cleavage site of APPsw); assay: Binding of biotin-labeled Substrate M to immobilized complementary (HC) peptides; details: substrate not specified
Procedure: Complementary peptides (0.2, 2, 20, and 200 μM) were dissolved in phosphate buffered saline (PBS) (pH 7.4) and fixed to microtiter wells for 5 hr at 37° C. The wells were blocked with blocking buffer (3% BSA/PBS) for 1 hr at 37° C. Either N-terminally biotinylated Substrate W or M (20 μM) in blocking buffer was added and incubated for overnight at 4° C. Streptavidin-horseradish peroxidase in blocking buffer was added to detect resulting bound substrates. The plate was incubated for 2 hr at room temperature (RT), followed by addition of 3,3′,5,5′-tetramethyl-benzidine (TMB) as substrate for horseradish peroxidase for color reaction.
(§1) Reacti-Bind™ maleic anhydride-activated polystyrene plate (Pierce, IL, USA) was coated with 50 μl of HC peptide (200 μM in distilled water) by chemical coupling for 3 h at room temperature (RT) and washed three times with phosphate buffered saline (PBS) containing 0.05% tween 20 (PBST). The plate was blocked with blocking buffer (0.5% gelatin in PBS) for 1 h at RT. After discarding blocking buffer, biotinylated BACE1 substrates (200 μM) in blocking buffer was applied on the plate and incubated for 2.5 h at RT. Each well was washed three times with PBST. The bound biotinylated BACE1 substrates were detected by incubation with streptavidin-horseradish peroxidase (Str-HRP, 125 mU/ml in blocking buffer) for 2 h at RT. Color reaction was carried out with 50 μl of 3,3′,5,5′-Tetramethylbenzidine Liquid Substrate (Sigma-Aldrich, MO, USA). After stopping the reaction by addition of an equal volume of 1 N HCl, absorbance at 450 nm was read in an automated ELISA reader (EL 312e, Bio-Tek Instruments, VT, USA). All assays were carried out in duplicate.

[3] = system: cleavage of Substrate M by β-secretase; assay: Inhibition of cleavage of Substrate M by β-secretase by complementary and deletion peptides (Examples 1, 5, 6; assay format not stated); type: biochemical; details: various concentrations, Substrate M (FIG. 8)
Procedure: So far we have focused on c-Sub M peptide. Serial deletions were made from N-terminus or C-terminus of c-Sub M (FIG. 5), and we investigated effect of the deletions on the cleavage of Substrate M. The optimum peptide/substrate ratio for inhibition on the cleavage of substrate was determined by observing the inhibition percentage at various peptide/substrate ratios (FIG. 4). Subsequently, the inhibitory activity of the deletion peptides were tested at 10 inhibitor/substrate ratio and the concentration of the Substrate M was 50 μM. Deletion of the first two amino acids from the N-terminus had little effect on the activity and deletion of five amino acids from the C-terminus of c-Sub M had little effect on the inhibitory activity (FIG. 6). Further deleted peptides were tested for inhibitory activity on the cleavage of Substrate M (FIG. 7).
The above-mentioned peptides that have inhibitory activity were tested at various concentrations for their inhibitory activities on their mutant substrate Substrate M (FIG. 8).

[4] = molecular target: T1, cleavage of Sub-ST6Ga11 by rhBACE1 (Rattus norvegicus, UniProt P13721); assay: HPLC analysis of the cleavage of Sub-ST6Ga11 by rhBACE1; type: biochemical, human; details: up to 10 inhibitor/substrate ratio, Sub-ST6Ga11 50 μM, 500 nM enzyme
T1 construct: 19 amino acid region (DYEALTL/QAKEFQMPKSQE) that contains the β-cleavage site for investigation was chosen; purchased A&Pep Co., Inc. (non-labelled peptides); R&D Systems (rhBACE1)
Source text: One of the advantages of the APP inhibitor described in the present invention is that it is a peptide or a mimetic that bind to the β-secretase cleavage site of APP, thus not affecting other β-secretase substrates. To confirm the specificity of the inventive APP inhibitor, two different types of substrates were used, APP Sub M and ST6Ga11. Both substrates are cleaved by β-secretase under normal conditions and the effect of the inventive APP inhibitor on the substrate cleavage was monitored by HPLC (See the schematic diagram in FIG. 16.) To carry out these experiments, the concentration of β-secretase required for cleavage of both substrates was determined as shown in FIG. 17. For substantial cleavage of ST6Ga11 substrate, 420 nM of the enzyme was required. Therefore, 420 nM of β-secretase was used for the following experiment.
Various concentrations of HC peptide were preincubated with either Sub M (50 μM) or Sub-ST6Ga11 (50 μM, DYEALTLQAKEFQMPKSQE) peptide corresponding to the β-cleavage site of ST6Ga11 for 2 h at RT. The mixtures containing Sub M was treated with 50 nM of rhBACE1 and that containing Sub-ST6Ga11 was treated with 500 nM enzyme for 12 h at RT. Roughly 50% of each BACE1 substrate was cleaved in the absence of HC peptide. The cleavage products were separated on a C18 reversed-phase HPLC column as described above.

[5] = molecular target: T2, Sub-ST6Ga11 (DYEALTLQAKEFQMPKSQE) (Rattus norvegicus, UniProt P13721); assay: Binding of bio-Sub-ST6Ga11 to immobilized HC peptide; details: HC peptide chemically coupled on microtiter plate
T2 construct: 19 amino acid region (DYEALTL/QAKEFQMPKSQE) that contains the β-cleavage site for investigation was chosen; purchased Peptron, Inc; host or cells: chemical synthesis
Procedure: as §1
It was investigated if HC peptide would show specificity for APP in terms of the inhibition of cleavage by BACE1. ST6Ga11 is also cleaved by BACE1. For this experiment, 19 amino acid region (DYEALTL/QAKEFQMPKSQE) that contains the β-cleavage site for investigation was chosen. The 19 amino acid peptide was designated as Sub-ST6Ga11. […]

absorbance in binding test [2]: high absorbance
concentration dependent inhibitory activity, activity group [3]: most active group
inhibition of cleavage of Sub-ST6Ga11 by rhBACE1 [4]: about 10%
binding of bio-Sub-ST6Ga11 [5]: also bound
Sequence: EFCIQIHF [c-Sub M ΔN1C1]
inhibitory activity on APP processing (βCTF) [1]: none of the inhibitors tested showed inhibitory activity

From patent US20090176711A1, “INHIBITORS OF AMYLOID PRECURSOR PROTEIN PROCESSING” (priority 2008, published 2009)
